Source: patent publication US9107919B2, “Pharmaceutical compositions comprising imidazoquinolin(amines) and derivatives thereof suitable for local administration” (priority 2009, dated 2015)
In brackets after ≈: the same amount, converted by molar mass.

Legend:
[1] = Pharmacokinetics of intravesical imiquimod in pigs (plasma, urine); type: in vivo, pig; details: female, Dutch Landrace, other: intravesical instillation, 50 mL of imiquimod 0.5% solution
Method: Female pigs (Dutch Landrace) were used for this study. […] The pigs were divided into four groups of six animals. Experimental procedures were performed under general anesthesia. Premedication contained a mixture of 10 mg/kg ketamine and 0.5 to 1.0 mg/kg midazolam i.m. in one shot. Sedation maintenance was done by the same mixture in half the dosage every 45 minutes. The bladder was emptied without suction trauma prior to the start of treatment (via 12 French Foley catheter) and 50 mL of the study drug was instilled intravesically. […] The catheter was clamped and the instillation fluid was retained in the bladder for 60 minutes, after which the bladder was emptied. The bladder was not rinsed after emptying.
Blood samples for pharmacokinetic analysis and cytokine measurement were collected in 4 mL lithium heparin tubes with gel divider before instillation of the study drug and 15, 30, 60, 120, 240 and 480 minutes after the beginning of drug instillation and also just before cystectomy. The samples were transferred on ice to the laboratory for plasma processing within 30 minutes. […]
The post-treatment evacuated bladder content and the evacuated urine just before necropsy were collected for analysis of imiquimod concentration. […] Imiquimod concentrations in plasma and urine was determined by CHIMAN s.r.1. […]

[2] = cited from earlier work
[3] = Imiquimod solubility in glacial acetic acid and buffers (HPLC/UV); type: physicochemical
Method: The solubility was experimentally determined weighing 1200 mg of drug, adding 10 ml of glacial acetic acid and gently shaking the dispersion for 24 hours. This sample, after filtration (0.22 μm Millipore membrane filter) was analyzed by HPLC for the imiquimod content and its pH was measured.
Imiquimod (738 mg) was initially dissolved in glacial acetic acid (10 ml). A volume of this solution was appropriately diluted with phosphate buffer pH 7.0 (0.1 M), citrate buffer pH 6.0 (0.1 M) or acetate buffer pH 5.0 (0.1 M) to prepare systems containing 2.0% of drug. The samples, after filtration by 0.22 μm Millipore membrane filter, were spectrophotometrically and chromatographically analyzed for the imiquimod content. The pH was determined.

[4] = Solubility of imiquimod in glycerol or propylene glycol; type: physicochemical; details: for imiquimod concentration in solution: 120° C. 24 h, then water added
Method: Imiquimod was weighed (100 mg) and added of glycerol or propylene glycol to a volume of 10 ml. After shaking (at 120° C. for 24 hours) and cooling, 10 ml of water were added: the dispersions were filtered and the imiquimod amount in the liquid phases was determined. […] When propylene glycol was used the pH was 3.03 and the concentration of imiquimod in solution was 0.02%.

[5] = Toxicity of intravesical imiquimod in pigs (well-being, blood, bladder histology); type: in vivo, pig
Method: Animal procedures were performed according to the protocol approved by the Institutional Animal Care and Use Committee (IACUC, Radboud University Nijmegen Medicai Centre, The Netherlands) and in compliance with national and European regulations. Female pigs (Dutch Landrace) were used for this study. The urogenital tract of the pig closely resembles the human urogenital system, and the shape of the penis and the preputial diverticulum prevent transurethral catheterization of a male pig. The sows were housed in special swine stainless steel battery cages and fed with universal swine food. The pigs were divided into four groups of six animals. Experimental procedures were performed under general anesthesia. […]
Body temperature was measured rectally before and 1, 8 and 24 hours and one week after starting treatment. The well being of the animals was monitored by experienced staff by a selected protocollary list of possible signs and symptoms of toxicity before the experiment, just after the instillation and just before cystectomy.
24 hours after treatment three animals per group were sacrificed and cystectomised and 7 days after treatment the remaining animals underwent the same procedure. […] Material was embedded in paraffin, sectioned, and stained with H&E. The slides were evaluated for signs of inflammation and allergic reaction in submucosa and mucosa. […]

[6] = Preliminary solubility tests of imiquimod (visual inspection); type: physicochemical
Method: 48 mg of imiquimod was weighed and added of hydrochloric acid solutions at different concentrations: in particular 48.2 mg imiquimod were treated with 8 ml hydrochloric acid 0.1 N, 48.6 mg imiquimod with 9 ml hydrochloric acid 0.2 N and 48.4 mg imiquimod with 8 ml hydrochloric acid 2 N. After vortexing for 5 minutes, the samples were visually inspected.
A weighed amount of drug (48.2 mg) was dissolved under agitation in 2 ml glacial acetic acid. After complete solubilisation a weighed aliquot of imiquimod (150 mg) was added to this solution in order to visually evaluate the maximum concentration of dissolved drug.
The solubility of imiquimod at different pH values was determined. Two different procedures were used. The drug was dispersed in the buffer (without acetic acid as co-solvent). 72 mg imiquimod were dispersed with 10 ml citrate buffer, 155 mg imiquimod in 10 ml phosphate buffer and 192 mg in 10 ml acetate buffer. After vortexing for 5 minutes, each sample was visually inspected.
A visual inspection of the systems was carried out.

[7] = Imiquimod diffusion/release, Franz cell with cellulose acetate membrane; type: physicochemical; details: 0.1 M lactic acid solution, 37° C., first hour
Method: The imiquimod diffusion/release experiments have been performed with Franz cells with an effective diffusion area of 1.76 cm^2 and a receiving compartment volume of 14 ml: the donor compartment contained about 2 g of gel formulation, while the receiving one was filled with 0.1 M lactic acid solution (pH=3.5). Between the two compartments, a cellulose acetate membrane (MWCO=23000) was interposed. The experiments were carried out at 37° C. using a re-circulating bath and the fluid in the receptor chamber was stirred continuously at 300 rpm.
At prefixed time intervals, the receiving phase was completely withdrawn and substituted by fresh acid solution. The receiving solution was submitted to UV analysis for imiquimod.

[8] = Solubility of imiquimod in short-chain acids, cyclodextrin and surfactants (spectrophotometry); type: physicochemical
Method: Some inorganic and organic acids were considered as potential solubilizers of the drug. 100 mg imiquimod were dissolved in 10 ml of phosphoric acid 0.1 M, succinic acid 0.1 M, citric acid 0.1 M, acetic acid 0.01 M, 0.05 M, 0.1 M and lactic acid 0.01 M, 0.05 M, 0.088 M, and 0.1 M. These systems, after filtration, were spectrophotometrically analyzed for imiquimod and their pH was measured.
Exactly weighed amounts of imiquimod (200 mg) and hydroxypropyl-β-cyclodextrin (HP-β-CD) (4000 mg) were dissolved in 10 ml of: • water • water at pH 5.0 (corrected with HCl) • water at pH 3.0 (corrected with HCl) • lactic acid solution (0.1 M)
After shaking for 24 hours and filtration (0.22 μm Millipore membrane filter) the solubilised imiquimod was spectrophotometrically determined. The solution pH was also measured.
Imiquimod (200 mg) was weighed and mixed with different amounts of surfactants (Tween 20, Tween 80, Cremophor EL or Pluronic F-68) in order to prepare formulations containing 0.5, 2.5 and 5% of surface active agent. Each mixture was added to 10 ml of lactic acid (0.1 M), gently shaken for 24 hours, filtered and analyzed by spectrophotometry and submitted to pH measurement.
The imiquimod present in solution in compositions prepared with different acids and surfactants is spectrophotometrically determined and is shown in Table 5 together with the pH value.

[9] = Imiquimod solubility in different solvent systems; type: physicochemical
Method: The dispersions have been centrifuged at 10,000 rpm for 10 minutes and the liquid phases collected and stored at room temperature until analysed. The imiquimod concentration in these solutions was spectrophotometrically (λ=319 nm) determined after appropriated dilution.

[10] = 27% glacial acetic acid/73% acetate buffer pH 5.0 (0.1 M), system with 2.0% drug
[11] = 27% glacial acetic acid/73% citrate buffer pH 6.0 (0.1 M), system with 2.0% drug
[12] = 27% glacial acetic acid/73% phosphate buffer pH 7.0 (0.1 M), system with 2.0% drug
[13] = dissolved in glacial acetic acid, then diluted with buffers
[14] = HP-β-CD 40.0% (water at pH 3.0 corrected with HCl)
[15] = HP-β-CD 40.0% (water at pH 5.0 corrected with HCl)
[16] = lactic acid 0.100 M + Cremophor EL 0.5%
[17] = lactic acid 0.100 M + Cremophor EL 2.5%
[18] = lactic acid 0.100 M + Cremophor EL 5.0%
[19] = lactic acid 0.100 M + HP-β-CD 40.0%
[20] = lactic acid 0.100 M + Pluronic F68 0.5%
[21] = lactic acid 0.100 M + Pluronic F68 2.5%
[22] = lactic acid 0.100 M + Pluronic F68 5.0%
[23] = lactic acid 0.100 M + Tween 20 0.5%
[24] = lactic acid 0.100 M + Tween 20 2.5%
[25] = lactic acid 0.100 M + Tween 20 5.0%
[26] = lactic acid 0.100 M + Tween 80 0.5%
[27] = lactic acid 0.100 M + Tween 80 2.5%
[28] = lactic acid 0.100 M + Tween 80 5.0%

CC(C)Cn1cnc2c(N)nc3ccccc3c21 [imiquimod, 1-isobutyl-1H-imidazo[4,5-c]quinolin-4-amine]
concentration at 24 h ([1]; pig, urine, after 24 hours, all imiquimod groups, read-out: imiquimod levels in urine): < 5000 ng/mL | concentration at 8 h ([1]; plasma, after eight hours, any pig): < 2.1 ng/mL | pKa [2]: about 4 | solubility in pure acetic and lactic acid [3]: > 7.5 % w/v | pH ([3]; 27% glacial acetic acid/73% acetate buffer pH 5.0): 2.92 | Imiquimod solubility, HPLC [3, 10]: 1.89 % w/v | Imiquimod solubility, UV [3, 10]: 1.92 % w/v | pH ([3]; 27% glacial acetic acid/73% citrate buffer pH 6.0): 3.20 | Imiquimod solubility, HPLC [3, 11]: 0.86 % w/v | Imiquimod solubility, UV [3, 11]: 0.72 % w/v | pH ([3]; 27% glacial acetic acid/73% phosphate buffer pH 7.0): 2.92 | Imiquimod solubility, HPLC [3, 12]: 1.69 % w/v | Imiquimod solubility, UV [3, 12]: 1.55 % w/v | Imiquimod solubility, HPLC ([3]; 100% glacial acetic acid, 24 h shaking): 7.50 % w/v | pH ([4]; glycerol system): 5.42 | imiquimod concentration in solution ([4]; glycerol): 0.02% | pH ([4]; propylene glycol system): 3.03 | imiquimod concentration in solution ([4]; propylene glycol): 0.02% | tolerability of intravesical administration [5]: well tolerated, causes no bladder wall toxicity | solubility in buffers (visual) ([6]; citrate, phosphate, acetate buffer, without acetic acid): slightly soluble | appearance after dilution [6, 13]: clear, transparent solutions | pH of the systems [6, 13]: lower than 3.6 | solubility ([6]; glacial (100%) acetic acid, organic solvent or mixture, thermodynamic from solid, room temperature): 100 mg/mL (≈ 416 mM) | solubility (visual) ([6]; hydrochloric acid 0.1 N, 0.2 N and 2 N): slightly soluble | solubility in glacial (100%) acetic acid ([6]; room temperature, visual): 10 % (w/v) | flux of imiquimod through the artificial barrier [7]: 1.95e-06 g·cm^−2·s^−1 | imiquimod in solution [8, 14]: 0.655 % w/v | pH [8, 14]: 3.05 | imiquimod in solution [8, 15]: 0.143 % w/v | pH [8, 15]: 5.17 | imiquimod in solution ([8]; HP-β-CD 40.0%, no acid (water)): 0.004 % w/v | pH ([8]; HP-β-CD 40.0%, no acid (water)): 7.09 | imiquimod in solution ([8]; acetic acid 0.010 M): 0.070 % w/v | pH ([8]; acetic acid 0.010 M): 4.37 | imiquimod in solution ([8]; acetic acid 0.050 M): 0.220 % w/v | pH ([8]; acetic acid 0.050 M): 4.08 | imiquimod in solution ([8]; acetic acid 0.100 M): 0.430 % w/v | pH ([8]; acetic acid 0.100 M): 3.97 | imiquimod in solution ([8]; citric acid 0.100 M): 0.010 % w/v | pH ([8]; citric acid 0.100 M): 2.10 | imiquimod in solution ([8]; lactic acid 0.010 M): 0.130 % w/v | pH ([8]; lactic acid 0.010 M): 4.20 | imiquimod in solution ([8]; lactic acid 0.050 M): 0.530 % w/v | pH ([8]; lactic acid 0.050 M): 3.90 | imiquimod in solution ([8]; lactic acid 0.088 M): 0.840 % w/v | pH ([8]; lactic acid 0.088 M): 3.71 | imiquimod in solution ([8]; lactic acid 0.100 M): 0.980 % w/v | pH ([8]; lactic acid 0.100 M): 3.61 | imiquimod in solution [8, 16]: 0.881 % w/v | pH [8, 16]: 3.90 | imiquimod in solution [8, 17]: 0.989 % w/v | pH [8, 17]: 3.87 | imiquimod in solution [8, 18]: 0.969 % w/v | pH [8, 18]: 3.88 | imiquimod in solution [8, 19]: 1.141 % w/v | pH [8, 19]: 4.46 | imiquimod in solution [8, 20]: 1.048 % w/v | pH [8, 20]: 3.85 | imiquimod in solution [8, 21]: 1.088 % w/v | pH [8, 21]: 3.87 | imiquimod in solution [8, 22]: 0.972 % w/v | pH [8, 22]: 3.89 | imiquimod in solution [8, 23]: 0.945 % w/v | pH [8, 23]: 3.88 | imiquimod in solution [8, 24]: 1.004 % w/v | pH [8, 24]: 3.86 | imiquimod in solution [8, 25]: 1.001 % w/v | pH [8, 25]: 3.89 | imiquimod in solution [8, 26]: 0.997 % w/v | pH [8, 26]: 3.83 | imiquimod in solution [8, 27]: 1.009 % w/v | pH [8, 27]: 3.82 | imiquimod in solution [8, 28]: 0.872 % w/v | pH [8, 28]: 3.82 | imiquimod in solution ([8]; phosphoric acid 0.100 M): 0.159 % w/v | pH ([8]; phosphoric acid 0.100 M): 1.80 | imiquimod in solution ([8]; succinic acid 0.100 M): 0.079 % w/v | pH ([8]; succinic acid 0.100 M): 2.94 | pH ([9]; 5% CD LA 01): 3.90 | imiquimod solubility ([9]; 5% CD LA 01 (5% HP-β-CD in 0.1 M lactic acid)): 1.23 % w/w | imiquimod solubility ([9]; 5% CD-16% PF127 LA 01): 1.15 % w/w | pH ([9]; 5% CD-16% PF127 LA 01): 4.05 | pH ([9]; 5% PF127 LA 01): 3.92 | imiquimod solubility ([9]; 5% PF127 LA 01 (5% Poloxamer 407 in 0.1 M lactic acid)): 1.19 % w/w | pH ([9]; 15% CD LA 01): 4.03 | imiquimod solubility ([9]; 15% CD LA 01 (15% HP-β-CD in 0.1 M lactic acid)): 1.37 % w/w | imiquimod solubility ([9]; 15% CD-16% PF127 LA 01): 1.22 % w/w | pH ([9]; 15% CD-16% PF127 LA 01): 4.25 | imiquimod solubility ([9]; 16% PF127 LA 01): 1.10 % w/w | pH ([9]; 16% PF127 LA 01): 3.99 | imiquimod solubility ([9]; 20% PF127 LA 01): 1.04 % w/w | pH ([9]; 20% PF127 LA 01): 4.16 | imiquimod solubility ([9]; DMSO): 0.09 % w/w | imiquimod solubility ([9]; Glutamic acid 0.072M): 0.54 % w/w | pH ([9]; Glutamic acid 0.072M): 3.95 | imiquimod solubility ([9]; Glycolic acid 0.1M): 0.68 % w/w | pH ([9]; Glycolic acid 0.1M): 3.82 | pH ([9]; LA 0.025M): 3.93 | imiquimod solubility ([9]; LA 0.025M, 25° C., 24 h): 0.33 % w/w | pH ([9]; LA 0.05M): 3.81 | imiquimod solubility ([9]; LA 0.05M, 25° C., 24 h): 0.58 % w/w | pH ([9]; LA 0.1M): 3.73 | imiquimod solubility ([9]; LA 0.1M, 25° C., 24 h): 1.18 % w/w | pH ([9]; LA 0.2M): 3.52 | imiquimod solubility ([9]; LA 0.2M, 25° C., 24 h): 2.20 % w/w | imiquimod solubility ([9]; N-Methyl-pyrrolidone): 0.16 % w/w | imiquimod solubility ([9]; PEG 400): 0.03 % w/w | imiquimod solubility ([9]; Tartaric acid 0.1M): 0.01 % w/w | pH ([9]; Tartaric acid 0.1M): 2.48
